Assay results from US20230158151A1 (NURIX THERAPEUTICS, INC., priority 2021, published 2023).

Target: T1, ITK (Homo sapiens, UniProt Q08881)
T1 construct: Compounds provided herein were assayed in vitro with ITK HiBit cell lines; endogenous in cells; host or cells: Molt4 (ATCC CRL-1552 [sic]), monoclonal clone 1C10
T1 sequence (Q08881 1-620): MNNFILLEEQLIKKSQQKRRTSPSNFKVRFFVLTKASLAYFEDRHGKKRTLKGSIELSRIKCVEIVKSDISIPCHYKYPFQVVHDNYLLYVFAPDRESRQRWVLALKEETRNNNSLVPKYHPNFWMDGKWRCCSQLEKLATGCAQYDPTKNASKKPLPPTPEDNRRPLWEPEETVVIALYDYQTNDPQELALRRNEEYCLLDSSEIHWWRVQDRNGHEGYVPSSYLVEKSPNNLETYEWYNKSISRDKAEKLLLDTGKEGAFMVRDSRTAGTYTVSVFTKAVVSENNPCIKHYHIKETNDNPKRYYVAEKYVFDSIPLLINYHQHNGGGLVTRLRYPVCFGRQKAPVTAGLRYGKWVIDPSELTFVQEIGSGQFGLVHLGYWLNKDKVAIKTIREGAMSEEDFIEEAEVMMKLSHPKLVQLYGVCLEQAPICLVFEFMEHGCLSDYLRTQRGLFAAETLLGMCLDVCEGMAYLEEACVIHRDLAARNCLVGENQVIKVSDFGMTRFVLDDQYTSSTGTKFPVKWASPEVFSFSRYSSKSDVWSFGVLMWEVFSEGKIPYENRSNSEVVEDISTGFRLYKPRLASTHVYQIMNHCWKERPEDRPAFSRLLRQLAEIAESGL
Assay: ITK Degradation HiBiT Assay
Type: cell-based
Details: C-terminal HiBiT-tagged Molt4 cells, 4 hrs incubation; for Dmax: MOLT-4, read-out: HiBiT DMax (%)
Method: Compounds provided herein were assayed in vitro with ITK HiBit cell lines. Compound dilution series (11-point, 5 fold dilutions in DMSO, columns 2-12 with replicate in rows A/B, C/D, E/F, G, H at 2000× the final required concentrations were prepared in 96 well plate (Falcon, cat. no. 353077). Column 1, rows A-H were control DMSO. The 2000× solutions ranged from 2 mM to 1.024 nM (final assay concentration range 1 μM to […]). The 2000× solutions were added to cells in […], for a final DMSO concentration of 0.5% and final assay compound concentration of 1×. For the cells, C-terminal HiBiT-tagged Molt4 cells (ATCC CRL-1552, monoclonal cell line clone 1C10) were plated at 1×10^6 cells/mL, 100 μL/well ([…]) in complete RPMI (10% FBS, 1% L-glutamine). The cells were incubated with compound 32 and compound 30 for 4 hrs at 32° C./6% CO2.
Following incubation, 100 μL of complete Nano-Glo HiBiT Lytic Detection Reagent (Nano-Glo HiBiT Lytic Buffer with 1:50 Nano-Glo HiBiT Lytic Substrate and 1:100 LgBiT Protein; Promega cat. no. N3O40) was added. Cells were further incubated for 10 min at room temperature (RT). Luminescence units (LU) were read on an EnVision plate reader (Perkin Elmer, 0.1 sec per well). Percent ITK remaining per sample was calculated as follows: […]
Using Graphpad Prism, % ITK remaining values were plotted as a function of compound concentration. To determine DC50 and Dmax values, resulting curves were fit to the Prism curve-fitting equation “log(inhibitor) vs response−Variable slope (four parameters)” (reported best fit value IC50 used as DC50). ITK was measured with antibody-based MSD (Meso-Scale Discovery) assays shown below.

Dmax [%]	DC50 [nM]	Compound
85		CN(C(=O)C1CCN(CC2CCN(c3ccc(C4CCC(=O)NC4=O)cn3)CC2)CC1)c1ccc2cc(-c3n[nH]c4c3C[C@@H]3C(F)(F)[C@]3(C)C4)[nH]c2c1 (stereo partly drawn) [Compound 5, N-(2-((4aS,5aR)-5,5-difluoro-5a-methyl-1,4,4a,5,5a,6-hexahydrocyclopropa[f]indazol-3-yl)-1H-indol-6-yl)-1-((1-(5-(2,6-dioxopiperidin-3-yl)pyridin-2-yl)piperidin-4-yl)methyl)-N-methylpiperidine-4-carboxamide]
85	0.25	C[C@@]12Cc3[nH]nc(C(=O)Nc4cnn(C5CN(CC6CCN(c7ccc(C8CCC(=O)NC8=O)cn7)CC6)C5)c4)c3C[C@@H]1C2(F)F (stereo partly drawn) [Compound 12, (4aS,5aR)—N-(1-(1-((1-(5-(2,6-dioxopiperidin-3-yl)pyridin-2-yl)piperidin-4-yl)methyl)azetidin-3-yl)-1H-pyrazol-4-yl)-5,5-difluoro-5a-methyl-1,4,4a,5,5a,6-hexahydrocyclopropa[f]indazole-3-carboxamide]
91	1.3	C[C@@]12Cc3[nH]nc(C(=O)Nc4cnn(C5CN(C(=O)C6CCN(c7ccc(C8CCC(=O)NC8=O)cn7)CC6)C5)c4)c3C[C@@H]1C2(F)F (stereo partly drawn) [Compound 13, (4aS,5aR)—N-(1-(1-(1-(5-(2,6-dioxopiperidin-3-yl)pyridin-2-yl)piperidine-4-carbonyl)azetidin-3-yl)-1H-pyrazol-4-yl)-5,5-difluoro-5a-methyl-1,4,4a,5,5a,6-hexahydrocyclopropa[f]indazole-3-carboxamide]
78		C[C@@]12Cc3[nH]nc(C(=O)Nc4cnn(C5CN(C(=O)C6CN(c7ccc(C8CCC(=O)NC8=O)cn7)C6)C5)c4)c3C[C@@H]1C2(F)F (stereo partly drawn) [Compound 14, (4aS,5aR)—N-(1-(1-(1-(5-(2,6-dioxopiperidin-3-yl)pyridin-2-yl)azetidine-3-carbonyl)azetidin-3-yl)-1H-pyrazol-4-yl)-5,5-difluoro-5a-methyl-1,4,4a,5,5a,6-hexahydrocyclopropa[f]indazole-3-carboxamide]
90		C[C@@]12Cc3[nH]nc(-c4cc5ccc(N6CCC7(CCN(C(=O)C8CCN(c9ccc(C%10CCC(=O)NC%10=O)cn9)CC8)CC7)C6=O)cc5[nH]4)c3C[C@@H]1C2(F)F (stereo partly drawn) [Compound 16, 3-(6-(4-(2-(2-((4aS,5aR)-5,5-difluoro-5a-methyl-1,4,4a,5,5a,6-hexahydrocyclopropa[f]indazol-3-yl)-1H-indol-6-yl)-1-oxo-2,8-diazaspiro[4.5]decane-8-carbonyl)piperidin-1-yl)pyridin-3-yl)piperidine-2,6-dione]
89	< 0.01	C[C@@]12Cc3[nH]nc(-c4cc5ccc(N6CCC7(CCN(CCC8CCN(c9ccc(C%10CCC(=O)NC%10=O)cn9)CC8)CC7)C6=O)cc5[nH]4)c3C[C@@H]1C2(F)F (stereo partly drawn) [Compound 17, 3-(6-(4-(2-(2-(2-((4aS,5aR)-5,5-difluoro-5a-methyl-1,4,4a,5,5a,6-hexahydrocyclopropa[f]indazol-3-yl)-1H-indol-6-yl)-1-oxo-2,8-diazaspiro[4.5]decan-8-yl)ethyl)piperidin-1-yl)pyridin-3-yl)piperidine-2,6-dione]
87	0.68	CN(C(=O)c1ccc2cc(-c3n[nH]c4c3CCC(C)(C)C4)[nH]c2c1)C1CCN(CC2CCN(c3ccc(C4CCC(=O)NC4=O)cn3)CC2)CC1 (stereo not drawn) [Compound 18, 2-(6,6-dimethyl-4,5,6,7-tetrahydro-1H-indazol-3-yl)-N-(1-((1-(5-(2,6-dioxopiperidin-3-yl)pyridin-2-yl)piperidin-4-yl)methyl)piperidin-4-yl)-N-methyl-1H-indole-6-carboxamide]
73		CC1(C)CCc2c(-c3cc4ccc(C(=O)N5CCC(CC6CCN(c7ccc(C8CCC(=O)NC8=O)cn7)CC6)CC5)cc4[nH]3)n[nH]c2C1 (stereo not drawn) [Compound 19, 3-(6-(4-((1-(2-(6,6-dimethyl-4,5,6,7-tetrahydro-1H-indazol-3-yl)-1H-indole-6-carbonyl)piperidin-4-yl)methyl)piperidin-1-yl)pyridin-3-yl)piperidine-2,6-dione]
83	< 0.001	C[C@@]12Cc3[nH]nc(-c4cc5ccc(C(=O)N6CCN(CC7CCN(c8ccc(C9CCC(=O)NC9=O)cn8)CC7)CC6)cc5[nH]4)c3C[C@@H]1C2(F)F (stereo partly drawn) [Compound 20, 3-(6-(4-((4-(2-((4aS,5aR)-5,5-difluoro-5a-methyl-1,4,4a,5,5a,6-hexahydrocyclopropa[f]indazol-3-yl)-1H-indole-6-carbonyl)piperazin-1-yl)methyl)piperidin-1-yl)pyridin-3-yl)piperidine-2,6-dione]
83	< 0.01	C[C@@]12Cc3[nH]nc(C(=O)Nc4cnn([C@H](c5ccccc5)C5CN(C(=O)C6CN(c7ccc(C8CCC(=O)NC8=O)cn7)C6)C5)c4)c3C[C@@H]1C2(F)F (stereo partly drawn) [Compound 21, (4aS,5aR)—N-(1-((1S)-(1-(1-(5-(2,6-dioxopiperidin-3-yl)pyridin-2-yl)azetidine-3-carbonyl)azetidin-3-yl)(phenyl)methyl)-1H-pyrazol-4-yl)-5,5-difluoro-5a-methyl-1,4,4a,5,5a,6-hexahydrocyclopropa[f]indazole-3-carboxamide]
48		CN(C(=O)CCC1CCN(c2ccc(C3CCC(=O)NC3=O)cn2)C1)c1ccc2cc(-c3n[nH]c4c3C[C@@H]3C(F)(F)[C@]3(C)C4)[nH]c2c1 (stereo partly drawn) [Compound 25, N-(2-((4aS,5aR)-5,5-difluoro-5a-methyl-1,4,4a,5,5a,6-hexahydrocyclopropa[f]indazol-3-yl)-1H-indol-6-yl)-3-(1-(5-(2,6-dioxopiperidin-3-yl)pyridin-2-yl)pyrrolidin-3-yl)-N-methylpropanamide]
80	0.04	CN(C(=O)C1CCN(C(=O)c2ccc3cc(-c4n[nH]c5c4CCC(C)(C)C5)[nH]c3c2)CC1)C1CCN(c2ccc(C3CCC(=O)NC3=O)cn2)CC1 (stereo not drawn) [Compound 33, 1-(2-(6,6-dimethyl-4,5,6,7-tetrahydro-1H-indazol-3-yl)-1H-indole-6-carbonyl)-N-(1-(5-(2,6-dioxopiperidin-3-yl)pyridin-2-yl)piperidin-4-yl)-N-methylpiperidine-4-carboxamide]
60	2.6	CC1(C)CCc2c(-c3cc4ccc(C(=O)N5CCN(CCC#Cc6ccc(C7CCC(=O)NC7=O)cc6)CC5)cc4[nH]3)n[nH]c2C1 (stereo not drawn) [Compound 34, 3-(4-(4-(4-(2-(6,6-dimethyl-4,5,6,7-tetrahydro-1H-indazol-3-yl)-1H-indole-6-carbonyl)piperazin-1-yl)but-1-yn-1-yl)phenyl)piperidine-2,6-dione]
68	15	CC1(C)CCc2c(-c3cc4ccc(C(=O)N5CCN(CCCCc6ccc(C7CCC(=O)NC7=O)cc6)CC5)cc4[nH]3)n[nH]c2C1 (stereo not drawn) [Compound 40, 3-(4-(4-(4-(2-(6,6-dimethyl-4,5,6,7-tetrahydro-1H-indazol-3-yl)-1H-indole-6-carbonyl)piperazin-1-yl)butyl)phenyl)piperidine-2,6-dione]
27		CC1(C)CCc2c(-c3cc4ccc(C(=O)N5CCC(CN6CCN(c7cccc(C8CCC(=O)NC8=O)n7)CC6)CC5)cc4[nH]3)n[nH]c2C1 (stereo not drawn) [Compound 41]
